In patent publication US20120009257A1 (priority 2009, published 2012):

Assays:
[1] = Bioequivalence study of fixed combination versus free combination, plasma PK by LC/MS/MS; format: in vivo, healthy subjects
Method: Pharmacokinetic measurements were performed on blood collected from each subject. […] The PK parameters were determined in plasma, using non-compartmental methods.
AUC0-tlast: Area under the concentration-time curve from time zero to time tlast, where tlast is the last time point with measurable concentration (ng hr/ml).
AUC0-inf: Area under the plasma concentration-time curve from time zero to infinity (ng hr/ml).
Cmax: Maximum (peak) plasma concentration (ng/ml).
Tmax: Time to reach peak or maximum concentration (hr).
T1/2: Elimination half-life associated with the terminal slope (E) of a semilogarithmic concentration-time curve (hr).

[2] = drug substance; cited from earlier work

| intra-subject coefficient of variation (CV) for AUC0-inf ([1]; aliskiren) [%] | intra-subject coefficient of variation (CV) for AUC0-tlast ([1]; aliskiren) [%] | intra-subject coefficient of variation (CV) for Cmax ([1]; aliskiren) [%] | intra-subject CV for AUC0-inf ([1]; valsartan) [%] | intra-subject CV for AUC0-tlast ([1]; valsartan) [%] | intra-subject CV for Cmax ([1]; valsartan) [%] | Structure (SMILES) | hygroscopicity [2] |
| --- | --- | --- | --- | --- | --- | --- | --- |
| 33.19 | 33.98 | 51.90 | – | – | – | COCCCOc1cc(C[C@@H](C[C@H](N)[C@@H](O)C[C@H](C(=O)NCC(C)(C)C(N)=O)C(C)C)C(C)C)ccc1OC [Aliskiren, 2(S),4(S),5(S),7(S)—N-(3-amino-2,2-dimethyl-3-oxopropyl)-2,7-di(1-methylethyl)-4-hydroxy-5-amino-8-[4-methoxy-3-(3-methoxy-propoxy)phenyl]-octanamide] | highly hygroscopic |
| – | – | – | 28.33 | 28.56 | 40.37 | CCCCC(=O)N(Cc1ccc(-c2ccccc2-c2nnn[nH]2)cc1)[C@H](C(=O)O)C(C)C [Valsartan] | – |
